The numbers were not newly measured in US4658014A, “Synthetic peptides with calcitonin-like activity” (priority 1985, dated 1987), which cites them from elsewhere.

For the data set the following is noted: versus natural eel calcitonin.

[Asu^1,7 ] eel calcitonin: the “activity relative to the naturally occuring hormone with the disulfide bond” value was “comparable activity”.
